Tests used:
[1] = Metabolic stability in swine jejunum (gut) tissue homogenate; assay type: in vitro ADME; conditions: prodrug 20 μM, 37° C.
Experimental: (§1) The representative Compounds of the Disclosure were screened for metabolic stability in swine jejunum/liver tissue homogenates, following our previously reported methods (Zimmermann et al., J. Med. Chem., 61(9):3918-29 (2018); Tenora et al., J. Med. Chem., 62(7):3524-38 (2019)). In brief, freshly collected tissues were homogenized by probe sonication in 9× volume of 0.1 M potassium phosphate buffer over ice. Post homogenization, prodrugs were spiked at a concentration of 20 μM (in triplicate) and incubated in an orbital shaker at 37° C. for 60 min. Final concentration of DMSO in the incubations was 0.2% v/v. At each time point (0, 30, 60 min), 100 μL of sample was precipitated with 300 μL of methanol containing internal standard (IS; losartan: 0.5 μM). […] After centrifugation, 50 μL of supernatant was diluted with 50 μL of water, vortexed and submitted for analysis. Prodrug disappearance over time was measured using liquid chromatography tandem mass spectrometry (LC-MS/MS).
(§2) The processed supernatants were analyzed on a Thermo Scientific Vanquish UPLC system (equipped with Vanquish autosampler, pumps, and column compartment) hyphenated to TSQ Altis mass spectrometer (Thermo Fisher Scientific Inc., Waltham MA). […] The autosampler was operated at 4° C. […] Peak area ratios obtained from peak area counts of analyte and internal standard were used to measure the disappearance of prodrugs.

[2] = Metabolic stability in swine liver tissue homogenate; assay type: in vitro ADME; conditions: prodrug 20 μM, 37° C.
Experimental: as §1, §2

| SMILES | Gut Stability (% remaining at 60 min) [1] | Efflux (Efflux) | Liver stability (% remaining at 60 min) [2] |
| --- | --- | --- | --- |
| CC(C)OC(=O)[C@H](CCC(=O)C=[N+]=[N-])NC(=O)CN(C)C [Compound 5d, Isopropyl (S)-6-diazo-2-(2-(dimethylamino)acetamido)-5-oxohexanoate] | 98 ± 2% | 2 | 76 ± 0% |
| CC(=O)N[C@@H](CCC(=O)C=[N+]=[N-])C(=O)OC(C)(C)C [Compound 5g, tert-Butyl (S)-2-acetamido-6-diazo-5-oxohexanoate] | 93 ± 1% | 1 | 2 ± 0% |
| CC(C)(C)OC(=O)[C@H](CCC(=O)C=[N+]=[N-])NC(=O)C(Cl)Cl [Compound 5i, tert-Butyl (S)-6-diazo-2-(2,2-dichloroacetamido)-5-oxohexanoate] | 110 ± 2% | 1 | 97 ± 0% |
| CCOC(=O)[C@H](CCC(=O)C=[N+]=[N-])NC(C)=O [Compound 5k, Ethyl (S)-2-acetamido-6-diazo-5-oxohexanoate] |  | 1 | 83 ± 2% |
| COCCOCCOC(=O)[C@H](CCC(=O)C=[N+]=[N-])NC(C)=O [Compound 5m, 2-(2-Methoxyethoxy)ethyl (S)-2-acetamido-6-diazo-5-oxohexanoate] | 87 ± 2% | 5 | 57 ± 0% |
| CC(C)OC(=O)[C@H](CCC(=O)C=[N+]=[N-])NC(=O)[C@H](Cc1c[nH]c2ccccc12)NC(=O)C(C)(C)C [Compound 8d, Isopropyl (S)-2-((S)-3-(1H-indol-3-yl)-2-pivalamidopropanamido)-6-diazo-5-oxohexanoate] | 9 ± 1% |  | 2 ± 0% |
| CC(C)OC(=O)[C@H](CCC(=O)C=[N+]=[N-])NC(=O)[C@H](Cc1c[nH]c2ccccc12)NC(=O)C1CC1 [Compound 8e, Isopropyl (S)-2-((S)-2-(cyclopropanecarboxamido)-3-(1H-indol-3-yl)propanamido)-6-diazo-5-oxohexanoate] | 9 ± 0% |  | 7 ± 0% |
| CC(C)OC(=O)[C@H](CCC(=O)C=[N+]=[N-])NC(=O)[C@H](Cc1c[nH]c2ccccc12)NC(=O)CN(C)C [Compound 8f, Isopropyl (S)-6-diazo-2-((S)-2-(2-(dimethylamino)acetamido)-3-(1H-indol-3-yl)propanamido)-5-oxohexanoate] | 2 ± 0% |  | 2 ± 0% |
| CCN(CC)CC(=O)N[C@@H](Cc1c[nH]c2ccccc12)C(=O)N[C@@H](CCC(=O)C=[N+]=[N-])C(=O)OC(C)C [Compound 8g, Isopropyl (S)-6-diazo-2-((S)-2-(2-(diethylamino)acetamido)-3-(1H-indol-3-yl)propanamido)-5-oxohexanoate] | 1 ± 0% |  | 1 ± 0% |
| CC(C)OC(=O)[C@H](CCC(=O)C=[N+]=[N-])NC(=O)[C@H](Cc1c[nH]c2ccccc12)NC(=O)CN1CCOCC1 [Compound 8i, Isopropyl (S)-2-((S)-3-(1H-indol-3-yl)-2-(2-morpholinoacetamido)propanamido)-6-diazo-5-oxohexanoate] | 0 ± 0% |  | 0 ± 0% |
| CC(C)OC(=O)[C@H](CCC(=O)C=[N+]=[N-])NC(=O)[C@H](Cc1c[nH]c2ccccc12)NC(=O)c1cccnc1 [Compound 8l, Isopropyl (S)-2-((S)-3-(1H-indol-3-yl)-2-(nicotinamido)propanamido)-6-diazo-5-oxohexanoate] | 2 ± 0% |  | 0 ± 0% |
| CC(C)(C)OC(=O)[C@H](CCC(=O)C=[N+]=[N-])NC(=O)[C@H](Cc1c[nH]c2ccccc12)NC(=O)CN1CCOCC1 [Compound 11c, tert-Butyl (S)-2-((S)-3-(1H-indol-3-yl)-2-(2-morpholinoacetamido)propanamido)-6-diazo-5-oxohexanoate] | 95 ± 1% | 106 | 80 ± 2% |
| CN(C)CC(=O)N[C@@H](Cc1cn(C)c2ccccc12)C(=O)N[C@@H](CCC(=O)C=[N+]=[N-])C(=O)OC(C)(C)C [Compound 12a, tert-Butyl (S)-6-diazo-2-((S)-2-(2-(dimethylamino)acetamido)-3-(1-methyl-1H-indol-3-yl)propanamido)-5-oxohexanoate] | 104 ± 2% | 80 | 75 ± 1% |
| C[C@H](NC(=O)CN(C)C)C(=O)N[C@@H](CCC(=O)C=[N+]=[N-])C(=O)OC(C)(C)C [Compound 13a, tert-Butyl (S)-6-diazo-2-((S)-2-(2-(dimethylamino)acetamido)propanamido)-5-oxohexanoate] | 99 ± 2% | 32 | 95 ± 1% |

Now from value to compound:

| Gut Stability (% remaining at 60 min) [1] | Efflux (Efflux) | Liver stability (% remaining at 60 min) [2] | SMILES |
| --- | --- | --- | --- |
| 96 ± 0% |  | 88 ± 1% | CC(=O)NCC(=O)N[C@@H](CCC(=O)C=[N+]=[N-])C(=O)OC(C)(C)C [Compound 14a, tert-Butyl (S)-2-(2-acetamidoacetamido)-6-diazo-5-oxohexanoate] |
| 96 ± 1% | 15 | 100 ± 1% | CC(C)(C)OC(=O)[C@H](CCC(=O)C=[N+]=[N-])NC(=O)CNC(=O)CN1CCOCC1 [Compound 14c, tert-Butyl (S)-6-diazo-2-(2-(2-morpholinoacetamido)acetamido)-5-oxohexanoate] |
| 96 ± 1% |  | 103 ± 3% | CC(=O)N[C@@H](Cc1cccnc1)C(=O)N[C@@H](CCC(=O)C=[N+]=[N-])C(=O)OC(C)(C)C [Compound 17a, tert-Butyl (S)-2-((S)-2-acetamido-3-(pyridin-3-yl)propanamido)-6-diazo-5-oxohexanoate] |
| 93 ± 1% |  | 105 ± 2% | CC(=O)N[C@@H](Cc1cncn1C)C(=O)N[C@@H](CCC(=O)C=[N+]=[N-])C(=O)OC(C)(C)C [Compound 18a, tert-Butyl (S)-2-((S)-2-acetamido-3-(1-methyl-1H-imidazol-5-yl)propanamido)-6-diazo-5-oxohexanoate] |
| 98 ± 2% |  | 100 ± 3% | CN(C)CC(=O)N[C@@H](Cc1cncn1C)C(=O)N[C@@H](CCC(=O)C=[N+]=[N-])C(=O)OC(C)(C)C [Compound 18b, tert-Butyl (S)-6-diazo-2-((S)-2-(2-(dimethylamino)acetamido)-3-(1-methyl-1H-imidazol-5-yl)propanamido)-5-oxohexanoate] |
|  | 46.71 | 75 ± 4% | CN(C)CC(=O)N[C@@H](Cc1cccc(F)c1)C(=O)N[C@@H](CCC(=O)C=[N+]=[N-])C(=O)OC(C)(C)C [Compound 21a, tert-Butyl (S)-6-diazo-2-((S)-2-(2-(dimethylamino)acetamido)-3-(3-fluorophenyl)propanamido)-5-oxohexanoate] |
|  | 52.07 | 62 ± 1% | CN(C)CC(=O)N[C@@H](Cc1ccc(F)cc1)C(=O)N[C@@H](CCC(=O)C=[N+]=[N-])C(=O)OC(C)(C)C [Compound 22a, tert-Butyl (S)-6-diazo-2-((S)-2-(2-(dimethylamino)acetamido)-3-(4-fluorophenyl)propanamido)-5-oxohexanoate] |
|  | 21 | 0 ± 0% | COC(=O)[C@H](CCC(=O)C=[N+]=[N-])NC(=O)[C@H](Cc1c[nH]c2ccccc12)NC(=O)CN(C)C [Compound 28a, Methyl (S)-6-diazo-2-((S)-2-(2-(dimethylamino)acetamido)-3-(1H-indol-3-yl)propanamido)-5-oxohexanoate] |
|  | 10 | 2 ± 0% | [2H]C([2H])([2H])OC(=O)[C@H](CCC(=O)C=[N+]=[N-])NC(=O)[C@H](Cc1c[nH]c2ccccc12)NC(C)=O [Compound 28b, Methyl-d3 (S)-2-((S)-2-acetamido-3-(1H-indol-3-yl)propanamido)-6-diazo-5-oxohexanoate] |
|  | 11 | 1 ± 0% | CC(=O)N[C@@H](Cc1c[nH]c2ccccc12)C(=O)N[C@@H](CCC(=O)C=[N+]=[N-])C(=O)OC(CF)CF [Compound 28c, 1,3-Difluoropropan-2-yl (S)-2-((S)-2-acetamido-3-(1H-indol-3-yl)propanamido)-6-diazo-5-oxohexanoate] |
| 89 ± 2% |  | 49 ± 0% | CN(C)CC(=O)N[C@@H](Cc1cn(C)c2ccccc12)C(=O)N[C@@H](CCC(=O)C=[N+]=[N-])C(N)=O [Compound 31f, (S)-6-Diazo-2-((S)-2-(2-(dimethylamino)acetamido)-3-(1-methyl-1H-indol-3-yl)propanamido)-5-oxohexanamide] |
